The text below walks through data of patent US9745267B2, “Compounds as modulators of RORC” (Boehringer Ingelheim International GmbH, priority 2013, dated 2017).

This test has as its target T1, RORγt (hRORC LBD) (Homo sapiens, UniProt P51449).
T1 construct: expressed in transfected cells; host or cells: HEK 293 (transient cotransfection with pGL4.3 luc2P/GAL4UAS/Hygro reporter)
T1 sequence (P51449 269-508 limits assumed): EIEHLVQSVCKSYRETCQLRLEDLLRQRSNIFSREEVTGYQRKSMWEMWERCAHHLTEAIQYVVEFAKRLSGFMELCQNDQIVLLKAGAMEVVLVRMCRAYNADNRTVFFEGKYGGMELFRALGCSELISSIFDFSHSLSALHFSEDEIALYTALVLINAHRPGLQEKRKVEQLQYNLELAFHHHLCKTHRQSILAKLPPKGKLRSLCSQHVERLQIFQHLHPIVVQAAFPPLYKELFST
The experiment in a line: RGA Assay: nuclear receptor transactivation assay, RORγt transactivation of a luciferase reporter. It counts as cell-based. To be noted: transiently transfected HEK 293 cells, Gal4DBD hRORC LBD, 20-24 hours incubation. As for the experimental part:
A nuclear receptor transactivation assay was performed to quantitate the ability of test compounds to inhibit RORγt transactivation of a luciferase reporter. A similar assay is described in: Khan et al., Bioorganic & Medicinal Chemistry Letters 23 (2013), 532-536. The system uses transiently transfected HEK 293 cells cotransfected with two plasmids (pGL4.3, luc2P/GAL4UAS/Hygro, and pBIND, Gal4DBD hRORC LBD1-3). The positive control is co-transiently transfected with both plasmids, and the negative control contains the pGL4.3 promoter sequence. Assays were assembled in 384 well plates where transiently transfected cells and test compound at varying concentrations were incubated for 20-24 hours. The next day, assays plates are taken out and equilibrated at RT for 20-30 minutes. Bright-Glo™ Luciferase Assay System is used to detect Luciferase production. After addition of Bright GLO detection reagent, the plates were incubated at RT for 20 minutes. The plates were read on an Envision plate reader to measure luminescence signal. The RLU signal is converted to POC relative to control and blank wells.
Compound Dilution Buffer:
Bright Glo Luciferase Assay System: Promega #E2620
Thaw lysis buffer provided in kit, add 100 mL lysis buffer to substrate powder.
(In general: In a reporter assay the amount or activity of a reporter protein is the signal.)
Regarding `CCC1(C2CC2)CN(C(=O)NCc2ccc(S(=O)(=O)CC)cc2)c2ccc(-c3c(OC)ncnc3C3CC3)cc21` (stereo not shown) [Example 118], 470 nM corresponded to half-maximal inhibition (IC50). On to `CCS(=O)(=O)c1ccc(CNC(=O)N2CC3(CCCC3)c3cc(-c4cnc(N(C)C)nc4C4CC4)ccc32)cc1` [Example 119], for which half-maximal inhibition (IC50) required 320 nM.

For the compound `CCS(=O)(=O)c1ccc(CNC(=O)N2CC(C)(C3CC3)c3cc(-c4c(OC)ncnc4C4CC4)ccc32)cc1` (stereo not shown) [Example 120], half-maximal inhibition (IC50) was put at 280 nM. The figure for `CCS(=O)(=O)c1ccc(CNC(=O)N2CC3(CCCC3)c3cc(-c4c(OC)ncnc4OC)ccc32)cc1` [Example 121] is 600 nM; for `CCS(=O)(=O)c1ccc(CNC(=O)N2CC3(CCCC3)c3cc(-c4c(OC)nc(C)nc4C4CC4)ccc32)cc1` [Example 122] it is 1100 nM; for `CCS(=O)(=O)c1ccc(CNC(=O)N2CC3(CCCC3)c3cc(-c4cc(CN5CCC(C#N)CC5)ccc4C)ccc32)cc1` [Example 123] it is 600 nM.

As to `CCS(=O)(=O)c1ccc(CNC(=O)N2CC3(CCCC3)c3cc(-c4cc(CN5CCS(=O)(=O)CC5)ccc4C)ccc32)cc1` [Example 124], the IC50 (commonly the concentration at which inhibition is half-maximal) was 1400 nM.

As to `CCS(=O)(=O)c1ccc(CNC(=O)N2CC3(CC3)c3cc(-c4c(OC)ncnc4C4CC4)ccc32)cc1` [Example 125], the IC50 was 1100 nM. This IC50 and that of the compound before are within 1.5-fold of each other. As for `CCS(=O)(=O)c1ccc(CNC(=O)N2C[C@@](C)(C3CC3)c3cc(-c4c(OC)ncnc4C4CC4)ccc32)cc1` [Example 126], the figure is 400 nM; as for `CCS(=O)(=O)c1ccc(CNC(=O)N2C[C@](C)(C3CC3)c3cc(-c4c(OC)ncnc4C4CC4)ccc32)cc1` [Example 127], 500 nM.

`CCS(=O)(=O)c1ccc(CNC(=O)N2CC3(CCC3)c3cc(-c4c(OC)ncnc4C4CC4)ccc32)cc1` [Example 128] yielded an IC50 of 210 nM. `CCS(=O)(=O)c1ccc(CNC(=O)N2CC3(CCC3)c3cc(-c4c(OC)ncnc4C4CC4)ccc32)nc1` [Example 129]: half-maximal inhibition (IC50) was put at 370 nM. Compared with the last compound, the IC50 is about 1.8-fold higher. As for `CCS(=O)(=O)c1ccc(CNC(=O)N2CC3(CCCC3)c3cc(-c4c(OC)nc(N(C)C)nc4C4CC4)ccc32)cc1` [Example 130], the half-inhibitory concentration (IC50) was 310 nM.
